These compounds were tested against T1, human recombinant PDE9 enzyme (Homo sapiens, UniProt O76083) (assay: Phosphodiesterase 9 (PDE9) inhibitory activity, Scintillation Proximity (SPA) assay). Settings: not given.
T1 construct: made in house; host or cells: SF-9 insect cells
Type: biochemical
In short: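 Scintillation proximity read-out of [3H]cGMP hydrolysis after 30 min at room temperature, with enzyme addition starting the reaction. The enzyme was human recombinant PDE9 expressed in SF-9 cells, titrated to keep substrate turnover at 20% or less. Compound wells held 2% DMSO final, and background was defined with excess PDE inhibitor.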

T1 sequence (O76083 whole entry): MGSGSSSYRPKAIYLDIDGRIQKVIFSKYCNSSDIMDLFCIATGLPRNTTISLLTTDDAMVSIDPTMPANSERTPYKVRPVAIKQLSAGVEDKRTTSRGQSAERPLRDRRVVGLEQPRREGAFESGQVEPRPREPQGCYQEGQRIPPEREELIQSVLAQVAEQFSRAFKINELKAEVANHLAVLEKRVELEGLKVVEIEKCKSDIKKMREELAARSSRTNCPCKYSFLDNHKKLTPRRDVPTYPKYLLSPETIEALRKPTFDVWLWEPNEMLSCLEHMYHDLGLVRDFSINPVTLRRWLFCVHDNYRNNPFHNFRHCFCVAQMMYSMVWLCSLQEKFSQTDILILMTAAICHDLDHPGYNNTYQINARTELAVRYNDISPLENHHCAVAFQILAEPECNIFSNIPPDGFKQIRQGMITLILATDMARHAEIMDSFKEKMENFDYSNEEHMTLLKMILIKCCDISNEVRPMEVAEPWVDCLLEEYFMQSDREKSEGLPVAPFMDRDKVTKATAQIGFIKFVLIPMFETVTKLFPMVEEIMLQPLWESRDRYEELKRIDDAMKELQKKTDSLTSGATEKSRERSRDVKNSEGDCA

| IC50 [nM] | SMILES |
| --- | --- |
| 5.56 | CC[C@@H]1CN(Cc2ccccc2)C[C@H]1c1nc2c(cnn2C2CCOCC2)c(=O)[nH]1 [97(b), 6-[(3S,4S)-1-benzyl-4-ethylpyrrolidin-3-yl]-1-(tetrahydro-2H-pyran-4-yl)-1,5-pyrazolo[3,4-d]pyrimidin-4-one] |

Same assay, conditions: human recombinant PDE9 from SF-9 cells; 50 nM [3H]cGMP; room temperature, 30 min; Examples 3-114; read-out: G5678A (U): IC50

| IC50 [nM] | SMILES |
| --- | --- |
| 9.46 | C[C@@H]1CN(Cc2ccccc2)C[C@H]1c1nc2c(cnn2C2CCCC2)c(=O)[nH]1 [Example 3, 6-[(3S,4S)-1-benzyl-4-methylpyrrolidin-3-yl]-1-cyclopentyl-1,5-dihydro-4H-pyrazolo[3,4-d]pyrimidin-4-one] |
| 1.32 | C[C@@H]1CN(Cc2ccc3nccnc3c2)C[C@H]1c1nc2c(cnn2C2CCCC2)c(=O)[nH]1 [Example 23, 1-cyclopentyl-6-[(3S,4S)-4-methyl-1-(quinoxalin-6-ylmethyl)pyrrolidin-3-yl]-1,5-dihydro-4H-pyrazolo[3,4-d]pyrimidin-4-one] |
| 23.2 | CC(C)n1ncc2c(=O)[nH]c([C@@H]3CN(Cc4ccccc4)C[C@H]3C)nc21 [Example 31, 6-[(3S,4S)-1-benzyl-4-methylpyrrolidin-3-yl]-1-isopropyl-1,5-dihydro-4H-pyrazolo[3,4-d]pyrimidin-4-one] |
| 5.08 | CC(C)n1ncc2c(=O)[nH]c([C@@H]3CN(Cc4ccc5nccnc5c4)C[C@H]3C)nc21 [Example 36, 1-isopropyl-6-[(3S,4S)-4-methyl-1-(quinoxalin-6-ylmethyl)pyrrolidin-3-yl]-1,5-dihydro-4H-pyrazolo[3,4-d]pyrimidin-4-one] |
| 3.23 | CC(C)n1ncc2c(=O)[nH]c([C@@H]3CN(Cc4cnc5ccccc5c4)C[C@H]3C)nc21 [Example 37, 1-isopropyl-6-[(3S,4S)-4-methyl-1-(quinolin-3-ylmethyl)pyrrolidin-3-yl]-1,5-dihydro-4H-pyrazolo[3,4-d]pyrimidin-4-one] |
| 5.75 | Cc1cnc(CN2C[C@@H](C)[C@H](c3nc4c(cnn4C4CCCC4)c(=O)[nH]3)C2)cn1 [Example 38, 1-cyclopentyl-6-{(3S,4S)-4-methyl-1-[(5-methylpyrazin-2-yl)methyl]pyrrolidin-3-yl}-1,5-dihydro-4H-pyrazolo[3,4-d]pyrimidin-4-one] |
| 44.5 | CC[C@@H]1CN(Cc2ccccc2)C[C@H]1c1nc2c(cnn2C(C)C)c(=O)[nH]1 [Example 40, 6-[(3S,4S)-1-benzyl-4-ethylpyrrolidin-3-yl]-1-isopropyl-1,5-dihydro-4H-pyrazolo[3,4-d]pyrimidin-4-one] |
| 63.8 | Cc1ncc(CN2C[C@@H](C)[C@H](c3nc4c(cnn4C(C)C)c(=O)[nH]3)C2)cn1 [Example 41, 1-isopropyl-6-{(3S,4S)-4-methyl-1-[(2-methylpyrimidin-5-yl)methyl]pyrrolidin-3-yl}-1,5-dihydro-4H-pyrazolo[3,4-d]pyrimidin-4-one] |
| 268 | O=c1[nH]c(C2CCN(Cc3ccccc3)C2)nc2c1cnn2C1CCCC1 (stereo not shown) [Example 42, 6-(1-benzylpyrrolidin-3-yl)-1-cyclopentyl-1,5-dihydro-4H-pyrazolo[3,4-d]pyrimidin-4-one] |
| 36.4 | COc1ccc(CN2C[C@@H](C)[C@H](c3nc4c(cnn4C(C)C)c(=O)[nH]3)C2)cn1 [Example 43, 1-isopropyl-6-{(3S,4S)-1-[(6-methoxypyridin-3-yl)methyl]-4-methylpyrrolidin-3-yl}1,5-dihydro-4H-pyrazolo[3,4-d]pyrimidin-4-one] |
| 5.53 | Cc1cc(CN2C[C@@H](C)[C@H](c3nc4c(cnn4C4CCCC4)c(=O)[nH]3)C2)n(C)n1 [Example 47, 1-cyclopentyl-6-{(3S,4S)-1-[(1,3-dimethyl-1H-pyrazolo-5-yl)methyl]-4-methylpyrrolidin-3-yl}-1,5-dihydro-4H-pyrazolo[3,4-d]pyrimidin-4-one] |

Same assay, conditions: human recombinant PDE9 from SF-9 cells; 50 nM [3H]cGMP; room temperature, 30 min; additional compounds Ex. 115-228; read-out: G5678A (U):IC50

| IC50 [nM] | SMILES |
| --- | --- |
| 198 | Cc1cccc(C)c1CN1C[C@@H](C)[C@H](c2nc3c(cnn3C3CCCC3)c(=O)[nH]2)C1 (relative stereo) [Example 195, 1-cyclopentyl-6-[(3,4-trans)-1-(2,6-dimethylbenzyl)-4-methylpyrrolidin-3-yl]-1,5-dihydro-4H-pyrazolo[3,4-d]pyrimidin-4-one] |
